The values below come from ChEMBL document CHEMBL4422652, “Synthesis and biological evaluation of novel oleanolic acid analogues as potential α-glucosidase inhibitors” (Eur J Med Chem, 2019).

Active and inactive are the calls of the source. The calls are words filed in the database; no cut-off is given here.

Series [1] relates to Mus musculus. Nature of the series: Hypoglycemic activity in streptozocin-induced diabetic Kunming mouse assessed as reduction in blood glucose AUC at 50 mg/kg, po treated 30 mins prior to glucose challenge and measured up to 210 mins by OGTT. It is filed as functional, organism-based.
Series [2] in a line: Non-competitive inhibition of baker's yeast alpha-glucosidase using varying levels of phenol-alphaD-glycopyranoside as substrate preincubated for 10 mins followed by substrate addition and measured after 30 mins by double reciprocal plot analysis. The arrangement: species or system Saccharomyces cerevisiae.
Series [3] relates to Mus musculus. Nature of the series: Hypoglycemic activity in streptozocin-induced diabetic Kunming mouse assessed as blood glucose level at 50 mg/kg, po administered once daily for 18 days measured on day 6 post dose (reference value: 22.31 +/- 1.05 mM). Type of series: functional.
Series [4] relates to Mus musculus. Nature of the series: Hypoglycemic activity in streptozocin-induced diabetic Kunming mouse assessed as blood glucose level at 50 mg/kg, po administered once daily for 18 days measured on day 12 post dose (reference value: 23.09 +/- 1.45 mM). Type of series: functional.
The nature of series [5]: Toxicity in streptozocin-induced diabetic Kunming mouse assessed as effect on body weight at 50 mg/kg, po administered once daily for 18 days measured every 6 days starting from day 1 during compound dosing. It is filed as organism-based. To be noted: in vivo.
For another series, the system named is Saccharomyces cerevisiae. Nature of the series: Non-competitive inhibition of baker's yeast alpha-glucosidase assessed as Km for substrate using varying levels of phenol-alphaD-glycopyranoside as substrate preincubated for 10 mins followed by substrate addition and measured after 30 mins by double reciprocal plot analysis.
For series [6], the system named is Mus musculus. Nature of the series: Hypoglycemic activity in streptozocin-induced diabetic Kunming mouse assessed as blood glucose level at 50 mg/kg, po administered once daily for 18 days measured on day 12 post dose (reference value: 23.27 +/- 1.03 mM). Type of series: functional.
The test system of series [7] is Mus musculus. The experiment in a line: Hypoglycemic activity in streptozocin-induced diabetic Kunming mouse assessed as reduction in blood glucose level at 50 mg/kg, po treated 30 mins prior to glucose challenge and measured up to 210 mins by OGTT. Type of series: functional, organism-based.
In series [8] the test system is Mus musculus. The experiment in a line: Hypoglycemic activity in streptozocin-induced diabetic Kunming mouse assessed as blood glucose level at 50 mg/kg, po administered once daily for 18 days measured on day 1 post dose (reference value: 18.86 +/- 0.7 mM). Type of series: functional.
The nature of series [9]: Inhibition of baker's yeast alpha-glucosidase using phenol-alphaD-glycopyranoside as substrate preincubated for 10 mins followed by substrate addition and measured after 30 mins. The arrangement: species or system Saccharomyces cerevisiae.
The test system of a further series is NIH3T3. The experiment in a line: Cytotoxicity against mouse 3T3 cells assessed as growth inhibition measured after 48 hrs by MTT assay. The note with it: NIH3T3, 48 h. It is filed as cell-based.
Series [10] has as its system Mus musculus. Nature of the series: Hypoglycemic activity in streptozocin-induced diabetic Kunming mouse assessed as reduction in blood glucose level at 50 mg/kg, po measured at 9 hrs post dose. It is filed as functional, organism-based.
The test system of series [11] is Mus musculus. Nature of the series: Hypoglycemic activity in streptozocin-induced diabetic Kunming mouse assessed as reduction in blood glucose level at 50 mg/kg, po measured at 2 hrs post dose. Type of series: functional, organism-based.

Turning to `CC1(C)CC[C@@]23CC[C@]4(C)[C@](OC2=O)([C@H](F)C[C@@H]2[C@@]5(C)C/C(=C\c6ccc(Cl)cc6)C(=O)C(C)(C)[C@@H]5CC[C@]24C)[C@@H]3C1`, the result in the series with Mus musculus [1], with Mus musculus [7] and in the series with Mus musculus [10] was Active. The Ki in [2] turned out to be 0.88 µM. In addition, the Activity is 23.59 mM with Mus musculus [3]; 20.25 mM with Mus musculus [4]; “Non-Toxic” in [5]; 16.22 mM with Mus musculus [6]; 19.59 mM in the series on Mus musculus [8]. In addition, in the series with Saccharomyces cerevisiae, the Km came out at 120 µM. Further, the IC50 in [9] is 0.69 µM; in the series with NIH3T3, over 300 µM.
As to `COc1ccc(/C=C2\C[C@]3(C)[C@H]4C[C@@H](F)[C@]56OC(=O)[C@@]7(CCC(C)(C)C[C@H]75)CC[C@@]6(C)[C@]4(C)CC[C@H]3C(C)(C)C2=O)c(OC)c1`, in [9], it took 1.92 µM to reach half-maximal inhibition (IC50).
In the case of `CC1(C)CC[C@@]23CC[C@]4(C)[C@](OC2=O)([C@H](F)C[C@@H]2[C@@]5(C)C/C(=C\c6ccccc6)C(=O)C(C)(C)[C@@H]5CC[C@]24C)[C@@H]3C1`, in series [9], the IC50 was determined as 3.43 µM.
Same read-out and setting: the value for `CC1(C)CC[C@@]23CC[C@]4(C)[C@](OC2=O)([C@H](F)C[C@@H]2[C@@]5(C)C/C(=C\c6cccc(F)c6)C(=O)C(C)(C)[C@@H]5CC[C@]24C)[C@@H]3C1` was 2.79 µM; that for `CC1(C)CC[C@@]23CC[C@]4(C)[C@](OC2=O)([C@H](F)C[C@@H]2[C@@]5(C)C/C(=C\c6ccc(Br)cc6)C(=O)C(C)(C)[C@@H]5CC[C@]24C)[C@@H]3C1` was 1.06 µM.
`CC1(C)CC[C@@]23CC[C@]4(C)[C@](OC2=O)([C@H](F)C[C@@H]2[C@@]5(C)C/C(=C\c6ccccc6F)C(=O)C(C)(C)[C@@H]5CC[C@]24C)[C@@H]3C1`: the midpoint of inhibition in series [9], the IC50, lay at 1.74 µM.
Consider `C[C@@H]1C[C@@H]([C@H](O)CC2CC(=O)NC(=O)C2)C(=O)[C@@H](C)C1` [CYCLOHEXIMIDE], for which the IC50 with NIH3T3 worked out at 0.25 µM.
`COc1ncc(F)cc1/C=C1\C[C@]2(C)[C@H]3C[C@@H](F)[C@]45OC(=O)[C@@]6(CCC(C)(C)C[C@H]64)CC[C@@]5(C)[C@]3(C)CC[C@H]2C(C)(C)C1=O`: the IC50 in series [9] amounted to 2.05 µM.
In series [9], `CC1(C)CC[C@]2(C(=O)O)CC[C@]3(C)C(=CC[C@@H]4[C@@]5(C)CC[C@H](O)C(C)(C)[C@@H]5CC[C@]43C)[C@@H]2C1` [OLEANOLIC_ACID] registered an IC50 of 2.41 µM.
The same measure, in the same setting: with `COc1ccccc1/C=C1\C[C@]2(C)[C@H]3C[C@@H](F)[C@]45OC(=O)[C@@]6(CCC(C)(C)C[C@H]64)CC[C@@]5(C)[C@]3(C)CC[C@H]2C(C)(C)C1=O` the figure was 2.74 µM; with `Cc1cccc(/C=C2\C[C@]3(C)[C@H]4C[C@@H](F)[C@]56OC(=O)[C@@]7(CCC(C)(C)C[C@H]75)CC[C@@]6(C)[C@]4(C)CC[C@H]3C(C)(C)C2=O)c1`, 2.16 µM; with `CC1(C)CC[C@@]23CC[C@]4(C)[C@](OC2=O)([C@H](F)C[C@@H]2[C@@]5(C)C/C(=C\c6cnccn6)C(=O)C(C)(C)[C@@H]5CC[C@]24C)[C@@H]3C1`, 3.14 µM.
Same read-out and setting: with `Cc1ccccc1/C=C1\C[C@]2(C)[C@H]3C[C@@H](F)[C@]45OC(=O)[C@@]6(CCC(C)(C)C[C@H]64)CC[C@@]5(C)[C@]3(C)CC[C@H]2C(C)(C)C1=O` the figure was 1.58 µM.
Still for that read-out and setting: with `COc1cccc(/C=C2\C[C@]3(C)[C@H]4C[C@@H](F)[C@]56OC(=O)[C@@]7(CCC(C)(C)C[C@H]75)CC[C@@]6(C)[C@]4(C)CC[C@H]3C(C)(C)C2=O)c1` the figure was 3.29 µM.
`CC1(C)CC[C@@]23CC[C@]4(C)[C@](OC2=O)([C@H](F)C[C@@H]2[C@@]5(C)C/C(=C\c6cccc(Br)c6)C(=O)C(C)(C)[C@@H]5CC[C@]24C)[C@@H]3C1` came in with an IC50 in series [9] of 1.86 µM.
Consider `C[C@H]1O[C@H](O[C@H]2[C@H](O)[C@@H](O)[C@@H](O[C@H]3[C@H](O)[C@@H](O)C(O)O[C@@H]3CO)O[C@@H]2CO)[C@H](O)[C@@H](O)[C@@H]1N[C@H]1C=C(CO)[C@@H](O)[C@H](O)[C@H]1O` (stereo partly drawn) [ACARBOSE], for which the Activity with Mus musculus [3] was 22.44 mM; in the series with Mus musculus [4], 20.41 mM; in the series with Mus musculus [6], 15.48 mM; in the series with Mus musculus [8], 19.14 mM. In series [9], half-maximal inhibition (IC50) required 579 µM.
In [9], `CC1(C)CC[C@@]23CC[C@]4(C)[C@](OC2=O)([C@H](F)C[C@@H]2[C@@]5(C)C/C(=C\c6ccccc6Cl)C(=O)C(C)(C)[C@@H]5CC[C@]24C)[C@@H]3C1` registered a half-inhibitory concentration (IC50) of 1.54 µM.
`CC1(C)CC[C@@]23CC[C@]4(C)[C@](OC2=O)([C@H](F)C[C@@H]2[C@@]5(C)CCC(=O)C(C)(C)[C@@H]5CC[C@]24C)[C@@H]3C1` gave an IC50 in [9] of 16.7 µM.
On the same count and under the same terms, the value for `CC1(C)CC[C@@]23CC[C@]4(C)[C@](OC2=O)([C@H](F)C[C@@H]2[C@@]5(C)C/C(=C\c6ccc(F)cc6)C(=O)C(C)(C)[C@@H]5CC[C@]24C)[C@@H]3C1` was 1.51 µM.
In the case of `CC1(C)CC[C@@]23CC[C@]4(C)[C@](OC2=O)([C@H](F)C[C@@H]2[C@@]5(C)C/C(=C\c6cccc(Cl)c6)C(=O)C(C)(C)[C@@H]5CC[C@]24C)[C@@H]3C1`, the result with Mus musculus [1], in the series with Mus musculus [11], in the series with Mus musculus [7] and in the series with Mus musculus [10] was Active. The inhibition constant Ki in series [2] stood at 1.49 µM. In addition, the Activity is given as 24.39 mM in the series with Mus musculus [3]; 23.51 mM in the series on Mus musculus [4]; “Non-Toxic” in series [5]; 17.52 mM in the series with Mus musculus [6]; 20.66 mM with Mus musculus [8]. In addition, in the series on Saccharomyces cerevisiae, the Km was 120 µM. The IC50 was 0.98 µM in series [9] and over 300 µM in the series with NIH3T3.
The compound `CC1(C)CC[C@@]23CC[C@]4(C)[C@](OC2=O)([C@H](F)C[C@@H]2[C@@]5(C)C/C(=C\c6ccccc6Br)C(=O)C(C)(C)[C@@H]5CC[C@]24C)[C@@H]3C1` returned a half-inhibitory concentration (IC50) in series [9] of 2.51 µM.
The same measure, in the same setting: with `CC1(C)CC[C@@]23CC[C@]4(C)[C@](OC2=O)([C@H](F)C[C@@H]2[C@@]5(C)CC[C@H](O)C(C)(C)[C@@H]5CC[C@]24C)[C@@H]3C1` the figure was 8.12 µM; with `Cc1ccc(/C=C2\C[C@]3(C)[C@H]4C[C@@H](F)[C@]56OC(=O)[C@@]7(CCC(C)(C)C[C@H]75)CC[C@@]6(C)[C@]4(C)CC[C@H]3C(C)(C)C2=O)cc1`, 1.29 µM.
Consider `CC1(C)CC[C@@]23CC[C@]4(C)[C@](OC2=O)([C@H](F)C[C@@H]2[C@@]5(C)C/C(=C\c6ccc(C(F)(F)F)nc6)C(=O)C(C)(C)[C@@H]5CC[C@]24C)[C@@H]3C1`, for which the IC50 in [9] was found to be 1.86 µM.
Still for that read-out and setting: with `CC1(C)CC[C@@]23CC[C@]4(C)[C@](OC2=O)([C@H](F)C[C@@H]2[C@@]5(C)C/C(=C\c6ccc(-n7cncn7)cc6)C(=O)C(C)(C)[C@@H]5CC[C@]24C)[C@@H]3C1` the figure was 3.18 µM.
For the compound `CC1(C)CC[C@@]23CC[C@]4(C)[C@](OC2=O)([C@H](F)C[C@@H]2[C@@]5(C)C/C(=C\c6ccc(Cl)cn6)C(=O)C(C)(C)[C@@H]5CC[C@]24C)[C@@H]3C1`, the result in the series on Mus musculus [1], in the series on Mus musculus [11], in the series with Mus musculus [7] and in the series with Mus musculus [10] was Active. This compound came in with a Ki in [2] of 1.19 µM. The Activity in the series with Mus musculus [3] is listed as 20.51 mM; in the series on Mus musculus [4], 18.29 mM; in series [5], “Non-Toxic”; with Mus musculus [6], 13.13 mM; in the series on Mus musculus [8] it was 17.45 mM. In addition, in the series on Saccharomyces cerevisiae, the Km amounted to 120 µM. In addition, the IC50 in series [9] is 0.72 µM; with NIH3T3 it was over 300 µM.
Turning to `CC1(C)CC[C@@]23CC[C@]4(C)[C@](OC2=O)([C@H](F)C[C@@H]2[C@@]5(C)C/C(=C\c6ccccn6)C(=O)C(C)(C)[C@@H]5CC[C@]24C)[C@@H]3C1`, the IC50 in series [9] is 2.67 µM.
In series [9], `CC1(C)CC[C@@]23CC[C@]4(C)[C@](OC2=O)([C@H](F)C[C@@H]2[C@@]5(C)C/C(=C\c6ccc(-c7ccccn7)cc6)C(=O)C(C)(C)[C@@H]5CC[C@]24C)[C@@H]3C1` came in with an IC50 of 3.67 µM.
`CC1(C)CC[C@@]23CC[C@]4(C)[C@](OC2=O)([C@H](F)C[C@@H]2[C@@]5(C)C/C(=C\c6ccc(Br)cc6F)C(=O)C(C)(C)[C@@H]5CC[C@]24C)[C@@H]3C1` came in with an IC50 in series [9] of 1.17 µM.
